Results: patent US20180360953A1 (priority 2015, published 2018)
“Also recorded” adds a separate entry of the source. Where two headings read alike, the source gives them in different places.

Experiments:
spleen cells [1] = type: cell-based, mice; conditions: 100 μM
spleen cells [2] = type: cell-based, mice
[3] = system: Spleen cells of naïve C57BL/6 mice; type: cell-based
spleen cells [4] = type: cell-based, mice; conditions: spleen cells 24 hrs; Roflumilast 6.5 μM, Sivelestat 46 μM, Sulfasalazine 100 uM, Aspirin 100 μM
Description: In this example, the signaling induced by neutrophil inhibitors were examined to provide insight into mechanisms used to promote immunoglobulin class switching and production of IgG and/or IgA antibodies. In these experiments, the spleen cells of nice mice were cultured 24 hrs without or with neutrophil inhibitor (roflumilast (Phosphodiesterase-4 inhibitor), sivelestat (Neutrophil elastase inhibitor), sulfasalazine (Neutrophil NET inhibitor), or aspirin (COX inhibitor)). Gene expression was analyzed by qRT-PCR for BAFF, AID, TGFb, and IL-10. Mice were divided into 5 groups: (1) Control (Media) (2) Roflumilast (6.5 μM) (3) Sivelestat (46 μM) (4) Sulfasalazine (100 uM) and (5) Aspirin (100 μM).

[5] = system: neutrophils and mast cells; conditions: cited from earlier work
[6] = system: F1-V-specific Ab responses; design: species or system mice; conditions: mouse, in vivo
spleen cells [7] = type: cell-based, mice; conditions: 5 days; for IgG and IgA secreted in culture supernatants of spleen cells / IgM secreted in culture supernatants of spleen cells: increasing doses
Description: (§1) Single cell suspensions of spleen cells, mesenteric lymph nodes were resuspended (2×10^6 cells/ml) in RPMI 1640 supplemented with L-glutamine, HEPES, penicillin, streptomycin and 10% heat-inactivated fetal calf serum. Cells were cultured for 1, 5, or 6 days at 37° C. and 5% CO2 in the presence of various doses of the neutrophil elastase inhibitor Sivelestat (ONO-5046, C20H22N2O7S) or Alvelestat (AZD9668, C25H22F3N5O4S) (Selleckchem, Houston, Tex.). In selected experiments, neutrophil elastase inhibitors were added to cells cultured in the presence of Salmonella typhimurium LPS (0.05 μg/ml, Sigma, Saint Louis, Mo.).
(§2) […] described by ELISA, using goat anti-murine IgM, IgG, and IgA antibodies (Southern Biotech, Birmingham, Ala.) and extrapolation against standards.

spleen cells [8] = type: cell-based, mice; conditions: 24 hrs, 48 μM
PA-specific Ab responses [9] = system: PA-specific Ab responses; design: species or system mice; conditions: mouse, in vivo
PA-specific Ab responses [10] = system: PA-specific Ab responses; design: species or system mice; conditions: mouse, in vivo; remark: listed apart in the source
spleen cells [11] = type: cell-based, mice; remark: listed apart in the source
[12] = system: Bacillus anthracis lethal toxin (LeTx); type: in vivo, mice; conditions: Day 21
[13] = system: mucosal homing receptors CCR9 and a4b7; design: species or system mice; conditions: mouse, ip
[14] = system: OVA-specific Ab responses; design: species or system mice; conditions: mouse, in vivo
[15] = system: mesenteric lymph node cells; type: cell-based, mice; conditions: 5-days culture
Description: as §1, §2

[16] = system: OVA-specific Ab responses; design: species or system mice; conditions: mouse, in vivo, ip
[17] = system: mucosal homing receptors CCR9 and a4b7; type: cell-based; conditions: spleen and mesenteric lymph node cells of naïve mice, 48 hours, Alvelestat 50 or 200 mM
Description: Spleen (A) and mesenteric lymph node (B) cells of naïve mice were cultures for 48 hours in the absence or in the presence of the NEI Alvelestat ([…]). The expression of mucosal homing receptors CCR9 and a4b7 by B lymphocytes, and T lymphocytes was analyzed by flow cytometry.

CD4+ T helper cells = system: CD4+ T helper cells; design: species or system mice; conditions: mouse, in vivo

CC(=O)Oc1ccccc1C(=O)O [Acetyl-salicylic acid (ASA), acetylsalicylic acid]
IgA secretion by spleen cells (frequency of IgA secreting cells, ELISPOT) (spleen cells [1]): enhanced | IgG and IgA production (immunofluorescence on cytospins) (spleen cells [2]): enhanced | Relative stimulation of IgA secretion [3]: ++ | Dose effect (Relative stimulation of IgA) ([3]; 10 uM): uM (++) | Dose effect (Relative stimulation of IgA) ([3]; 100 uM): uM (++) | Dose effect (Relative stimulation of IgA) ([3]; 500 uM): uM (+) | genes involved in immunoglobulin class switching (BAFF, AID, TGFb, and IL-10) (spleen cells [4]): differentially regulate

O=C(O)c1cc(/N=N/c2ccc(S(=O)(=O)Nc3ccccn3)cc2)ccc1O [Sulfasalazine, sulfasalazine]
IgA secretion by spleen cells (frequency of IgA secreting cells, ELISPOT) (spleen cells [1]): enhanced | Relative stimulation of IgA secretion [3]: +++ | Dose effect (Relative stimulation of IgA) ([3]; 10 uM): uM (++) | Dose effect (Relative stimulation of IgA) ([3]; 100 uM): uM (+++) | Dose effect (Relative stimulation of IgA) ([3]; 1000 uM): uM (+) | ET formation in neutrophils and mast cells [5]: significantly inhibit | genes involved in immunoglobulin class switching (BAFF, AID, TGFb, and IL-10) (spleen cells [4]): differentially regulate

CC(C)(C)C(=O)Oc1ccc(S(=O)(=O)Nc2ccccc2C(=O)NCC(=O)O)cc1 [Sivelestat, sivelestat]
IgA responses by a sublingual vaccine [6]: promotes | IgA secretion by spleen cells (frequency of IgA secreting cells, ELISPOT) (spleen cells [1]): enhanced | IgG and IgA production (immunofluorescence on cytospins) (spleen cells [2]): larger increases | Relative stimulation of IgA secretion [3]: ++ | Dose effect (Relative stimulation of IgA) ([3]; 4.6 uM): uM (+) | Dose effect (Relative stimulation of IgA) ([3]; 46 uM): uM (++) | Dose effect (Relative stimulation of IgA) ([3]; 230 uM): uM (++) | secretion of IgG and IgA by splenocytes cultured in the presence of LPS (spleen cells [7]; LPS 0.05 μg/ml): increased | IgG and IgA secreted in culture supernatants of spleen cells (spleen cells [7]): dose-dependent increase | IgM secreted in culture supernatants of spleen cells (spleen cells [7]): reduced | AID mRNA synthesis (spleen cells [8]): stimulated | genes involved in immunoglobulin class switching (BAFF, AID, TGFb, and IL-10) (spleen cells [4]): differentially regulate | PA-specific salivary IgA response (PA-specific Ab responses [9]): enhances | PA-specific serum IgA response (PA-specific Ab responses [9]): enhances | PA-specific serum IgG1 response (PA-specific Ab responses [9]): enhances | PA-specific serum IgG2c response (PA-specific Ab responses [9]): did not affect

O=C(Nc1c(Cl)cncc1Cl)c1ccc(OC(F)F)c(OCC2CC2)c1 [Roflumilast]
Relative stimulation of IgA secretion [3]: + | Dose effect (Relative stimulation of IgA) ([3]; 0.062 uM): uM (−) | Dose effect (Relative stimulation of IgA) ([3]; 0.62 uM): uM (−) | Dose effect (Relative stimulation of IgA) ([3]; 6.2 uM): uM (+) | genes involved in immunoglobulin class switching (BAFF, AID, TGFb, and IL-10) (spleen cells [4]): differentially regulate

O=C1CCC(N2C(=O)c3ccccc3C2=O)C(=O)N1 (stereo not drawn) [thalidomide]
ET formation in neutrophils and mast cells [5]: significantly inhibit

Cc1c(-c2ccnn2C)cc(C(=O)NCc2ccc(S(C)(=O)=O)cn2)c(=O)n1-c1cccc(C(F)(F)F)c1 [Alvelestat, alvelestat]
High affinity PA-specific IgG1 and IgA Ab responses (PA-specific Ab responses [10]): high affinity antibodies; also recorded: promotes high affinity Abs | titers of PA-specific IgG1 and IgA responses (PA-specific Ab responses [10]): enhanced | frequency of CD4+ T cells (spleen cells [11]): increased | serum anti-PA neutralizing antibody titers ([12]; sublingual EdTx and NEI, listed as NEI): significantly increased; also recorded: enhanced neutralizing activity | serum anti-PA neutralizing antibodies ([12]; sublingual antigen plus NEI): low and comparable levels | expression of gut homing receptors (CCR9 and a4b7) by B and T cells in vivo [13]: promotes expression | OVA-specific serum IgE response [14]: no IgE response was detected | OVA-specific serum IgE responses induced by EdTx [14]: significantly reduced; also recorded: suppresses | OVA-specific serum IgG1 responses in the absence of EdTx [14]: increased | OVA-specific serum IgG1 responses induced by EdTx [14]: increased the magnitude; also recorded: enhances | OVA-specific serum IgG2a/c, or IgG3 in the absence of EdTx [14]: no evidence that the NEI enhanced | OVA-specific serum IgG2b responses induced by EdTx as adjuvant [14]: significantly increased; also recorded: enhances | antigen-specific IgA in gut (fecal extracts) [14]: did not stimulate | antigen-specific IgA responses in vaginal washes [14]: only non-significant levels | fecal IgA responses [14]: resulted in induction of fecal IgA responses | vaginal IgG responses induced by EdTx as adjuvant [14]: enhance | IgA production by spleen cells cultured in the presence of LPS (spleen cells [7]; LPS 0.05 μg/ml): significant increase | IgG and IgA secreted in culture supernatants of spleen cells (spleen cells [7]): increased | IgM secreted in culture supernatants of spleen cells (spleen cells [7]): reduced | IgG and IgA in culture supernatants of mesenteric lymph node cells [15]: higher levels | AID mRNA synthesis (spleen cells [8]): stimulated | kinetic and magnitude of OVA-specific serum IgG [16]: enhances | mucosal IgA responses in the gut (OVA-specific, fecal extracts) [16]: promotes | expression of gut homing receptors (CCR9 and a4b7) by B and T cells in vitro [17]: promotes expression | all CD4+ T helper cytokine responses, including Th1, Th2, Th17 and Tfh (CD4+ T helper cells): significantly increased | frequencies of IL-4+ CD4+ cells (CD4+ T helper cells): lower frequencies | frequencies of IL-10+ CD4+ T cells and IL-17+ CD4+ T cells (CD4+ T helper cells): higher frequencies | frequencies of Th1 cells (IFNγ+ CD4+ T cells and TNFα+ CD4+ T cells) (CD4+ T helper cells): same frequencies | frequencies of Th2 cells producing IL-5 (CD4+ T helper cells): similar | frequencies of antigen-specific IL-21+ CD4 T cells (CD4+ T helper cells): same frequencies
